ChEMBL document CHEMBL1142358, “3-amino-benzo[d]isoxazoles as novel multitargeted inhibitors of receptor tyrosine kinases” (J Med Chem, 2008)
Activity calls are given as the source filed them. The calls are words filed in the database; no cut-off is given here.

Tests used:
[1] = target: Mast/stem cell growth factor receptor Kit (Homo sapiens, UniProt P10721); assay: Inhibition of KIT by HTRF assay
[2] = target: T1, Vascular endothelial growth factor receptor 2 (Homo sapiens, UniProt P35968)
Description: Inhibition of KDR by HTRF assay

[3] = target: T2, Receptor-type tyrosine-protein kinase FLT3 (Homo sapiens, UniProt P36888)
T2 sequence (P36888 whole entry): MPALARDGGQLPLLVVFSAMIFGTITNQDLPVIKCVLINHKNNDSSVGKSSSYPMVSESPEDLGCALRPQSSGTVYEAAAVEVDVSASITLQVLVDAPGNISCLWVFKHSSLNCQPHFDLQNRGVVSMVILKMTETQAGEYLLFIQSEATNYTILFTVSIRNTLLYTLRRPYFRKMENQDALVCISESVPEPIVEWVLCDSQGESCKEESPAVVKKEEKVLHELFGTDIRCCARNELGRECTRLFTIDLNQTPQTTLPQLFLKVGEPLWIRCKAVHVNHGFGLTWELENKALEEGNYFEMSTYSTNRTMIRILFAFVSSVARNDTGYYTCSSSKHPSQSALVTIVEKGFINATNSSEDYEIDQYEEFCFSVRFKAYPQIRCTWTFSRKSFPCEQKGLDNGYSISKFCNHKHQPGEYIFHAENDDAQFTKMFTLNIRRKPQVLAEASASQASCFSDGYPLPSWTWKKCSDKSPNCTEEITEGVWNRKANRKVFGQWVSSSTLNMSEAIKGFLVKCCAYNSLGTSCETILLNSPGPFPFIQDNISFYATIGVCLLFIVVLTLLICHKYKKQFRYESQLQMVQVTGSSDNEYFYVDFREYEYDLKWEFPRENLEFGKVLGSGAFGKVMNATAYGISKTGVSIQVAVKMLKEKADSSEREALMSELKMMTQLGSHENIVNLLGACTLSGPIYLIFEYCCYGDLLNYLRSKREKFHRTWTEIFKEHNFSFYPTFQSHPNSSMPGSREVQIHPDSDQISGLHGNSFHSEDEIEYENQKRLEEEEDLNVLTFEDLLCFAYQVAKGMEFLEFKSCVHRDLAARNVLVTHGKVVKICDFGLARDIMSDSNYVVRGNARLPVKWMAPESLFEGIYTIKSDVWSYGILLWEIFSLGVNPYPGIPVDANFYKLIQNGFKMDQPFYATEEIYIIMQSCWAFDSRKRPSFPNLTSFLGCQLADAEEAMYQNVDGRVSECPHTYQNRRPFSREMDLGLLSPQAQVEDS
Description: Inhibition of FLT3 by HTRF assay

[4] = target: Receptor-type tyrosine-protein kinase FLT3 (Homo sapiens) (UniProt P36888)
Description: Inhibition of FLT3 by HTRF assay

[5] = target: Platelet-derived growth factor receptor beta (Homo sapiens, UniProt P09619); assay: Inhibition of PDGFRbeta by HTRF assay
Angiopoietin-1 receptor = Angiopoietin-1 receptor (Homo sapiens, UniProt Q02763); assay: Inhibition of TIE2 by HTRF assay
[6] = target: Tyrosine-protein kinase HCK (Homo sapiens, UniProt P08631); assay: Inhibition of HCK by HTRF assay
[7] = target: Proto-oncogene tyrosine-protein kinase Src (Homo sapiens, UniProt P12931); assay: Inhibition of SRC by HTRF assay
[8] = target: Tyrosine-protein kinase Lyn (Homo sapiens, UniProt P07948); assay: Inhibition of LYN by HTRF assay
[9] = Half life in mouse at 1 mg/kg, iv; assay type: ADME, organism-based; design: dose 1 mg/kg, route intravenous; details: in vivo
[10] = Volume of distribution in mouse at 1 mg/kg, iv; assay type: ADME, organism-based; design: dose 1 mg/kg, route intravenous; details: in vivo
[11] = Clearance in mouse at 1 mg/kg, iv; assay type: ADME, organism-based; design: dose 1 mg/kg, route intravenous; details: in vivo
[12] = Oral bioavailability in mouse at 10 mg/kg; assay type: ADME, organism-based; details: in vivo
[13] = AUC in mouse at 10 mg/kg, po; assay type: ADME, organism-based; design: dose 10 mg/kg, route oral; details: plasma
Mus musculus = assay: Inhibition of estradiol-induced uterine edema in orally dosed BALB/c mouse edema model at 3 mg/kg, po; assay type: functional
HT-1080 = assay: Inhibition of tumor growth in human HT1080 cells xenografted in SCID/Beige mouse at 30 mg/kg/day, bid relative to control; details: HT-1080, read-out: TGI
[14] = target: Macrophage colony-stimulating factor 1 receptor (Homo sapiens, UniProt P07333); assay: Inhibition of CSF1R by HTRF assay
[15] = target: Vascular endothelial growth factor receptor 1 (Homo sapiens, UniProt P17948); assay: Inhibition of FLT1 by HTRF assay
[16] = target: T1, Vascular endothelial growth factor receptor 2; assay: Inhibition of human KDR phosphorylation in mouse NIH3T3 cells by ELISA; assay type: cell-based

T1 sequence (P35968 whole entry): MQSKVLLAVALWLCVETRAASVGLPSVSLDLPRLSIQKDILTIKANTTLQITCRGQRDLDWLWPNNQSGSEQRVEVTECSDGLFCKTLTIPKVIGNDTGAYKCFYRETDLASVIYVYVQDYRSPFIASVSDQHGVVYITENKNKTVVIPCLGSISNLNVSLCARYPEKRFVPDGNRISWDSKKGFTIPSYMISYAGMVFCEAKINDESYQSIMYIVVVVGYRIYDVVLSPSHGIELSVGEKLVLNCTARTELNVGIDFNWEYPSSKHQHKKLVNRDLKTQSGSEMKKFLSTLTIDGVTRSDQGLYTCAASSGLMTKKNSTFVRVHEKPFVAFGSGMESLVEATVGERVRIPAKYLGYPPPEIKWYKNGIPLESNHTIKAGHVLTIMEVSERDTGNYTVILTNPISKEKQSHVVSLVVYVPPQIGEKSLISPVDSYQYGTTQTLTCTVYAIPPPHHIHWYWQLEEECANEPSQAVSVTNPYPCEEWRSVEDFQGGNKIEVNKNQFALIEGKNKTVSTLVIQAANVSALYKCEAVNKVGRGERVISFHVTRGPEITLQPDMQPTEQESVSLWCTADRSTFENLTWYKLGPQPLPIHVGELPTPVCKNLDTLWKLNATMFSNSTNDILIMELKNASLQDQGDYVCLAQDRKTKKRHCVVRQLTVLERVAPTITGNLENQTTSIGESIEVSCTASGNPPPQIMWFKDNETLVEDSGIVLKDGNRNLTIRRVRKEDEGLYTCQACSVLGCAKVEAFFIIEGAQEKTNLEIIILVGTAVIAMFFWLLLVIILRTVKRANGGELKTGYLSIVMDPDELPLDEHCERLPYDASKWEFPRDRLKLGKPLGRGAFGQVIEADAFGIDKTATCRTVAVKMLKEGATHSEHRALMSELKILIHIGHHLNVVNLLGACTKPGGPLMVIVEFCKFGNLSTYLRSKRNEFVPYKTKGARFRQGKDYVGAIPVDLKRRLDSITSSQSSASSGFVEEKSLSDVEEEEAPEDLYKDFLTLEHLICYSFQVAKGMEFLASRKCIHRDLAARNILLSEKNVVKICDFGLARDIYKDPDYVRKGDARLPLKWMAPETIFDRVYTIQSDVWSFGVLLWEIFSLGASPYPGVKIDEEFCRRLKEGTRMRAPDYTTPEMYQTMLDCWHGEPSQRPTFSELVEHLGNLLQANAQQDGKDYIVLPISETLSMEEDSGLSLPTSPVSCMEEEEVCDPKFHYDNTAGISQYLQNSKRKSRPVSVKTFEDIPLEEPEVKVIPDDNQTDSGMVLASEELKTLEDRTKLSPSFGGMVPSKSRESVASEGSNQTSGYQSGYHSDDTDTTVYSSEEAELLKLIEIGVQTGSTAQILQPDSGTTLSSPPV
Mast/stem cell growth factor receptor Kit, sequence (P10721 whole entry): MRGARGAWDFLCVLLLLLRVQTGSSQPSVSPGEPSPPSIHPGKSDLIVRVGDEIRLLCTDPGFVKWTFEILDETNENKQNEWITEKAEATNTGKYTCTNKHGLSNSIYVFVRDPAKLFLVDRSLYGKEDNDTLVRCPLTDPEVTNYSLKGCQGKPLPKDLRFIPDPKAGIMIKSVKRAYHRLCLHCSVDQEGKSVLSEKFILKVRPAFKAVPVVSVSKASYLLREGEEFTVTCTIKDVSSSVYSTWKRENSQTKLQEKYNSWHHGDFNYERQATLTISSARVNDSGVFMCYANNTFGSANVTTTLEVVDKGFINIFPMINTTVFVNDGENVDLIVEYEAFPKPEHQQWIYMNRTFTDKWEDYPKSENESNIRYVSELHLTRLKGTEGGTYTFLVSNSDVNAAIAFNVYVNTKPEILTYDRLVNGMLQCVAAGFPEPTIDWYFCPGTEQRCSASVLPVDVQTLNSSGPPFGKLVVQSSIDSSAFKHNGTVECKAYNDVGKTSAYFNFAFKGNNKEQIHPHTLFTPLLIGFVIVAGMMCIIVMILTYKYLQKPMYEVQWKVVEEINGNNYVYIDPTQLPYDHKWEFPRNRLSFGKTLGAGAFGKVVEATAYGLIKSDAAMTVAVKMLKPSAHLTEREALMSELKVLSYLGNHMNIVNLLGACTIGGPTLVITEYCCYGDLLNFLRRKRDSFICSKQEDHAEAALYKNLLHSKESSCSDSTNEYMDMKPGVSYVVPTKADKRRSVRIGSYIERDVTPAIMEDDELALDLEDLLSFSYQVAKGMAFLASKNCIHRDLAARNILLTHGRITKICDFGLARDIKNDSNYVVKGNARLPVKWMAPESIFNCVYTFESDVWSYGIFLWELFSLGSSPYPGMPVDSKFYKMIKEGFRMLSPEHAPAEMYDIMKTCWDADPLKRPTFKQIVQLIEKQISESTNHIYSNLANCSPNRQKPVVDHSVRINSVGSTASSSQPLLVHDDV
Tyrosine-protein kinase Lyn, sequence (P07948 whole entry): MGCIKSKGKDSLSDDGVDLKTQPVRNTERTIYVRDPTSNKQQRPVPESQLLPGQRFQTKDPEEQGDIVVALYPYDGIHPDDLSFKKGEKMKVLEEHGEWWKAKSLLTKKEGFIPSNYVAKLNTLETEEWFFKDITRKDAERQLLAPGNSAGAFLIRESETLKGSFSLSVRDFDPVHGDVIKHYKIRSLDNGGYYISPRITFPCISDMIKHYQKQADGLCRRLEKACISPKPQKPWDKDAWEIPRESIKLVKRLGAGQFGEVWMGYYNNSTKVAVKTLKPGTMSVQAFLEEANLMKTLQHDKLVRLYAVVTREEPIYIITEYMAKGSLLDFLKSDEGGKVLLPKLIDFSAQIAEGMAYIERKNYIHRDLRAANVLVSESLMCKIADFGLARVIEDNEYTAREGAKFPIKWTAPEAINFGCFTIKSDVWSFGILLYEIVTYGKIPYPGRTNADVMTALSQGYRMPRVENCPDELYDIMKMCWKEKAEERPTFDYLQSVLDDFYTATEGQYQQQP
Macrophage colony-stimulating factor 1 receptor, sequence (P07333 whole entry): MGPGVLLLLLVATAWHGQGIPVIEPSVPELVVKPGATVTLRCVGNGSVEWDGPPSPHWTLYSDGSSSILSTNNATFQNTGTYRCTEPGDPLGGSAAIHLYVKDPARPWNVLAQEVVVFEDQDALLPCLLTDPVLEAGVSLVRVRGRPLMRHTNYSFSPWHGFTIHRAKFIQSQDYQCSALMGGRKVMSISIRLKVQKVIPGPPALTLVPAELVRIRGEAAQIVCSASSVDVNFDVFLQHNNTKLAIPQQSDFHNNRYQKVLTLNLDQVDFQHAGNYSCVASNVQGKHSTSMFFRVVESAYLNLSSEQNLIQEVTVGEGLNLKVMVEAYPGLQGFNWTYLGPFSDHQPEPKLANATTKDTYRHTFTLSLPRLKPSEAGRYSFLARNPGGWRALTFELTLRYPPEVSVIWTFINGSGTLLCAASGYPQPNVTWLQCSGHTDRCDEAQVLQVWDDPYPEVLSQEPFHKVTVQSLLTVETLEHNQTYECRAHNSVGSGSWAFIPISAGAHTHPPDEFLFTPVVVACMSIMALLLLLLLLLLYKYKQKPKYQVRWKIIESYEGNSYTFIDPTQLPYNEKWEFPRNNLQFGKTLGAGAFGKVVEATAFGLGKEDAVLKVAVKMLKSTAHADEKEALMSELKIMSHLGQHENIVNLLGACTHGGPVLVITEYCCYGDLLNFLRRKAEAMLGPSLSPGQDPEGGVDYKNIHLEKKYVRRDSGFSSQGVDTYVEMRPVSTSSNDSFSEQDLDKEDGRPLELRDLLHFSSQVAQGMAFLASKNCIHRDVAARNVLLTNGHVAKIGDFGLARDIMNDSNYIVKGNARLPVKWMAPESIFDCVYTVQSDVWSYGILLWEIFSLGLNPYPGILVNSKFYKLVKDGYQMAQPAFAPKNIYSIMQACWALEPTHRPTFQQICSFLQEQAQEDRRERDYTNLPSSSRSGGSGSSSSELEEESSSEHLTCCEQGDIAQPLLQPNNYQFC
Platelet-derived growth factor receptor beta, sequence (P09619 whole entry): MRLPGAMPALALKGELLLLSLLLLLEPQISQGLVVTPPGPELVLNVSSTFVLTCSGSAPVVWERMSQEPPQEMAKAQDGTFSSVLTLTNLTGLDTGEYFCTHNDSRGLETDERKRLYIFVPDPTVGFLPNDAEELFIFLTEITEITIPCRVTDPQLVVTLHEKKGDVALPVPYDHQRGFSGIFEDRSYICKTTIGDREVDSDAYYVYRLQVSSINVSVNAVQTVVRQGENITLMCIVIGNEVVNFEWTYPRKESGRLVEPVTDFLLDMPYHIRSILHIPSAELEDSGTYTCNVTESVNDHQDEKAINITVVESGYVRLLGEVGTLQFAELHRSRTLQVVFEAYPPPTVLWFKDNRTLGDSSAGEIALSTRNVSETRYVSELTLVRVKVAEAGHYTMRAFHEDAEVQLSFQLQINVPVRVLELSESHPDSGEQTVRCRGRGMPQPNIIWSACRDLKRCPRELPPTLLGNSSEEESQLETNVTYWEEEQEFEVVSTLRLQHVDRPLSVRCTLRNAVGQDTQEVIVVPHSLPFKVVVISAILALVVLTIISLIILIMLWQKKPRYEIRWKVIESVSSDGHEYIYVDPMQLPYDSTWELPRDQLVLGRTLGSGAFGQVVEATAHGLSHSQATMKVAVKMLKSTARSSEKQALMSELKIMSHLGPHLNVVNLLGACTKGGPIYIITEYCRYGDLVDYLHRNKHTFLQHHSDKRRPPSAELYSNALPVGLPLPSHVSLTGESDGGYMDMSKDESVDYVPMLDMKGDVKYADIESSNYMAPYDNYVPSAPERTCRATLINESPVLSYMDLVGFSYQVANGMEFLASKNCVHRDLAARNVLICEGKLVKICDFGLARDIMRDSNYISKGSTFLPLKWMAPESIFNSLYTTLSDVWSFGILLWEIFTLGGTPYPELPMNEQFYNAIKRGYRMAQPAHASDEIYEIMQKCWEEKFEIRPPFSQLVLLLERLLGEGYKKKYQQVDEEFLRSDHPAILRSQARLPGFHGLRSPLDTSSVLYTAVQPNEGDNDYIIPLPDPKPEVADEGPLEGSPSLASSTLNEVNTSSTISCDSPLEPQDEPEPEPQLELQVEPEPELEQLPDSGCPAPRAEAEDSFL

| SMILES | IC50 [1] [nM] | IC50 [3] [nM] | further results |
| --- | --- | --- | --- |
| Cc1ccc(F)c(NC(=O)Nc2ccc(-c3cccc4snc(N)c34)cc2)c1 | 790 | 1500 | IC50 [2]: 628 nM |
| Nc1noc2cccc(-c3ccc(NC(=O)Nc4ccc(OC(F)(F)F)cc4)cc3)c12 | 102 | 27 |  |
| Nc1noc2cccc(-c3ccc(NC(=O)Nc4cccc(Cl)c4)cc3)c12 | 10 | 6 |  |
| COc1ccc(NC(=O)Nc2ccc(-c3cccc4onc(N)c34)cc2)cc1 | 5 |  | Activity [4]: inactive |
| Nc1noc2cccc(-c3ccc(NC(=O)Nc4cc(C(F)(F)F)ccc4F)cc3)c12 | 339 |  |  |
| Cc1ccc(NC(=O)Nc2ccc(-c3cccc4onc(N)c34)cc2)cc1Cl | 50 |  |  |
| Nc1noc2cccc(-c3ccc(NC(=O)Nc4ccc(C(F)(F)F)cc4)cc3)c12 | 27 |  | Activity [4]: inactive |
| Nc1noc2cccc(-c3ccc(NC(=O)Nc4ccccc4OC(F)(F)F)cc3)c12 | 166 | 60 |  |
| Nc1ccc(-c2cccc3onc(N)c23)cc1 | 14800 |  |  |
| Nc1noc2cccc(-c3ccc(NC(=O)Nc4ccc(F)cc4)cc3)c12 | 7 | 4 |  |
| COc1ccc(NC(=O)Nc2ccc(-c3cccc4onc(N)c34)cc2)cc1Cl |  | 8 | IC50 [16]: 36 nM; IC50 [2]: 8 nM |
| Nc1noc2cccc(-c3ccc(NC(=O)Nc4ccccc4)cc3)c12 | 18 |  |  |

The next lines start with results.

| IC50 [1] [nM] | IC50 [3] [nM] | SMILES | further results |
| --- | --- | --- | --- |
| 12 | 14 | Cc1cccc(NC(=O)Nc2ccc(-c3cccc4onc(N)c34)cc2)c1 |  |
| > 12500 | 1400 | Nc1noc2cccc(-c3ccc(NC(=O)/C=C/c4cccc(C(F)(F)F)c4)cc3)c12 | IC50 [2]: > 12500 nM |
| 12 |  | Cc1ccc(NC(=O)Nc2ccc(-c3cccc4onc(N)c34)cc2)cc1F | Activity [4]: inactive |
| 5 |  | Cc1ccc(NC(=O)Nc2ccc(-c3cccc4onc(N)c34)cc2)cc1 |  |
| 216 | 173 | Cc1ccc(F)c(NC(=O)Nc2ccc(-c3ccc(F)c4onc(N)c34)cc2)c1 | IC50 [2]: 211 nM |
| 23 |  | Cc1ccc(F)c(NC(=O)Nc2ccc(-c3cccc4onc(N)c34)cc2)c1 |  |
| 72 | 30 | COc1ccc(-c2ccc(NC(=O)Nc3cccc(Cl)c3)cc2)c2c(N)noc12 | Activity [5]: inactive; IC50 (Angiopoietin-1 receptor): 1000 nM; IC50 [6]: > 50000 nM; IC50 [7]: > 50000 nM; IC50 [8]: > 50000 nM; half-life [9]: 54 min; Vd [10]: 1.2 L/kg; clearance [11]: 15.5 mL/min/kg; bioavailability [12]: 99%; AUC [13]: 25.8 µM·h; inhibition in vivo at 3 mg/kg (Mus musculus): 90%; inhibition in vivo at 30 mg/kg/day (HT-1080): 45%; IC50 [14]: 40 nM; IC50 [15]: 38 nM |
| 114 | 64 | Nc1noc2cccc(-c3ccc(NC(=O)Nc4cccc(C(F)(F)F)c4)cc3)c12 |  |
